Measured values as given in patent publication US8394398B2 (Abbott Laboratories, priority 1997, dated 2013).
Values belong to the compound of their own block, whether it stands above or below them.

Experiments:
[1] = pharmacokinetics after a single intravenous dose in cynomolgus monkey; type: in vivo; settings: single 2.5 mg/kg intravenous dose, blood, n=3
[2] = tested on: human monocytes; test: cytokine production by LPS-stimulated human monocytes (ELISA); type: cell-based; settings: for MCP-1 production by human monocytes in vitro: FIG. 10; for production of TNFα and IL-6 by human monocytes: FIGS. 10 and 11; for Maximal Inhibitory Activity, IL-6 / Maximal Inhibitory Activity, MCP-1 / Maximal Inhibitory Activity, TNF: Monocytes, 24 hours
Experimental: (§1) Experiments were performed to determine the effects of zotarolimus, sirolimus and dexamethasone on the production of TNFα, IL-6 and MCP-1 by activated human monocytes In addition to monocytes and macrophages two other key cell types are involved in the etiology of restenosis, arterial smooth muscle and endothelial cells. These cells are activated and produce cytokines in response to TNFα. […] The activation of cytokine production by human coronary artery smooth muscle and endothelial cells following TNFα treatment was determined by measuring interleukine-8 (IL-8), MCP-1 and IL-6 production. As shown by the results of the experiments described below, the ability of these compounds to inhibit the production of cytokines supports their use in combination as anti-restenotic agents since these cytokines play a role in the development of restenosis. […] After 24 hours, the supernatants were carefully collected and TNFα, IL-6 and MCP-1 levels determined by ELISA. Primary cultures of human coronary artery endothelial and smooth muscle cells were obtained from Cambrex and maintained as described by the vendor. […] After 24 hours the supernatants were removed and replaced with media containing TNFα (5 ng/ml) in the presence and absence of various concentrations of zotarolimus, dexamethasone or sirolimus. The cells were incubated for 24 hours and the supernatants carefully removed and frozen until measurement. Cytokine levels were measured in the supernatants by sandwich ELISA.

[3] = tested on: human coronary artery endothelial cells (hCaEC); test: cytokine production by TNFα-treated human coronary artery endothelial cells (ELISA); type: cell-based; settings: TNFα (5 ng/ml), 24 hours
Experimental: as §1

[4] = tested on: human coronary artery smooth muscle cells (hCaSMC); test: cytokine production by TNFα-treated human coronary artery smooth muscle cells (ELISA); type: cell-based; settings: TNFα (5 ng/ml), 24 hours; for Maximal Inhibitory Activity, IL-6 / Maximal Inhibitory Activity, Il-8 / Maximal Inhibitory Activity, MCP-1: hCaSMC
Experimental: as §1

[5] = tested on: human coronary artery smooth muscle cells (hCaSMC); test: 3H-thymidine uptake proliferation assay, hCaSMC; type: cell-based; settings: for effect on the antiproliferative activity of zotarolimus in hCaSMC: FIG. 12
Experimental: Experiments were performed to investigate interactions between zotarolimus and the corticosteroid dexamethasone. The effect of dexamethasone on the antiproliferative activity of zotarolimus in human coronary artery smooth muscle ([…]) and endothelial […] determined using an in vitro proliferation assay. The proliferation and migration of vascular smooth muscle cells into the vascular neointima is a characteristic pathologic response seen in restenotic lesions (A. Lafont and P. Libby, The smooth muscle cell: sinner or saint in restenosis and the acute coronary syndromes? […] As a result, in vitro assays which specifically measure the antiproliferative activity of candidate anti-restenotic compounds on human coronary artery smooth muscle and endothelial cells should predict potential anti-restenotic activity in vivo. The tritium incorporation assay is an accurate and sensitive method used in the art to determine cell number and proliferation. Compounds or combinations of compounds which attenuate growth factor-mediated human coronary artery smooth muscle cell […]) proliferation, as measured by the tritium incorporation assay in vitro, are candidate anti-restenotic agents. […] Cell proliferation was monitored by following incorporation of ^3H-thymidine into newly synthesized DNA of cells stimulated by serum and growth factors. Exponentially growing […] were seeded into 96-well flat bottom tissue culture plates at 5,000 cells/well (10,000 cells/well for […]). The cells were allowed to attach overnight. The growth medium was removed the following day and cells were washed twice with unsupplemented (basal) medium to remove traces of serum and growth factors. Basal medium (200 μl) was added to each well and the cells incubated in medium lacking growth factors and serum to starve and synchronize them in the G0 state. After starvation (48 hours for […] and 39 hours for […]) in medium lacking serum and growth factors, the cells were replenished with 200 μl supplemented medium in the absence or presence of drugs at the desired concentrations. […] After a 72-hour incubation period, 25 μl (1 μCi/well) of ^3H-thymidine (Amersham Biosciences) were added to each well. The cells were incubated at 37° C. for 16-18 hours to allow incorporation of ^3H-thymidine into newly synthesized DNA and the cells harvested onto 96-well plates containing bonded glass fiber filters using a cell harvester (Harvester 9600, TOMTEC). […] Controls included medium only, starved cells and cells in complete medium. Drug activity was established by determining the inhibition of ^3H-thymidine incorporation into newly synthesized DNA relative to cells grown in complete medium. […] The final IC50s are means of the 3-4 experiments. In these experiments, the x-axis represents the concentration of the drug being varied. For most of these curves that is zotarolimus alone and in combination with a fixed concentration of dexamethasone. Each graph contains a dexamethasone alone curve and a zotarolimus alone curve. The set of curves in each graph is generated by adding dexamethasone at a fixed concentration (1, 5, 10 or 25 nM) to various concentrations of zotarolimus (0, 0.04, 0.08, 0.8, 4, 8, 40 nM). Each curve represents the dose-response of zotarolimus (whose concentration is given on the x-axis) in the presence of the fixed concentration of dexamethasone given in the legend). […] The concentration eliciting a specific antiproliferative effect was determined using a 4-parameter equation (Equation 1). […]

[6] = tested on: human coronary artery endothelial cells (hCaEC); test: 3H-thymidine uptake proliferation assay, hCaEC; type: cell-based
[7] = accelerated in vitro elution from PC-1036 coated stents; type: physicochemical

- AUC [1]: 2.55 ng·h/mL
Compound: 40-epi-N-[2′-pyridone]-rapamycin [Example 2-pyridone]

Compound: C[C@@H]1C[C@H]2[C@@H]3CCC4=CC(=O)C=C[C@]4(C)[C@@]3(F)[C@@H](O)C[C@]2(C)[C@@]1(O)C(=O)CO [Dexamethasone]
- MCP-1 production by human monocytes in vitro [2]: dose-dependently inhibit MCP-1 production
- production of TNFα and IL-6 by human monocytes [2]: potently blocks the production of TNFα and IL-6
- Maximal Inhibitory Activity, IL-6 [2]: +++ (+++ indicates maximal inhibitory activity of 75-100% of control)
- Maximal Inhibitory Activity, MCP-1 [2]: + (+ indicates maximal inhibitory activity of 50-75% of control)
- Maximal Inhibitory Activity, TNF [2]: +++ (+++ indicates maximal inhibitory activity of 75-100% of control)
- Maximal Inhibitory Activity, IL-6 [3]: − (− indicates maximal inhibitory activity less than 50% of control)
- Maximal Inhibitory Activity, Il-8 [3]: − (− indicates maximal inhibitory activity less than 50% of control)
- Maximal Inhibitory Activity, MCP-1 [3]: − (− indicates maximal inhibitory activity less than 50% of control)
- block of hCaSMC IL-6 production [4]: 65.7%
- block of hCaSMC IL-8 production [4]: 68.4%
- block of hCaSMC MCP-1 production [4]: 57.2%
- Maximal Inhibitory Activity, IL-6 [4]: + (+ indicates maximal inhibitory activity of 50-75% of control)
- Maximal Inhibitory Activity, Il-8 [4]: + (+ indicates maximal inhibitory activity of 50-75% of control)
- Maximal Inhibitory Activity, MCP-1 [4]: + (+ indicates maximal inhibitory activity of 50-75% of control)
- IC50 ([5]; Homo sapiens, 3 h, read-out: hCaSMC IC50 Mean ± SEM): 9.3 nM
- inhibition of hCaSMC proliferation ([5]; dexamethasone alone at or above 10 nM): N.D.* Not detectable: Concentrations of dexamethasone alone at or above 10 nM inhibit proliferation by greater than 50% preventing calculation of zotarolimus IC50's in these experiments.
- effect on proliferation of hCaEC ([6]; FIG. 13): does not affect the proliferation of hCaEC
- IC50 ([6]; Homo sapiens, Endothelial cell, 3 h, read-out: hCaEC IC50 Mean ± SEM): > 10000 nM
- burst release at the beginning of elution ([7]; stent with 10 μg/mm each drug, 5 μg/mm PC-1036 topcoat, 10 mM acetate buffer pH 4.0, 1% Solutol HS 15, 37° C., 24-hour profile): slightly larger burst release at the beginning than zotarolimus
- effect on the elution profile of zotarolimus ([7]; zotarolimus alone vs in the presence of dexamethasone, same conditions): little effect on the elution profile of zotarolimus

- AUC [1]: 5.59 ng·h/mL
Compound: COC1CC2CCC(C)C(O)(O2)C(=O)C(=O)N2CCCCC2C(=O)OC(C(C)CC2CCC(n3ccc(=O)cc3)C(OC)C2)CC(=O)C(C)C=C(C)C(O)C(OC)C(=O)C(C)CC(C)C=CC=CC=C1C (stereo not drawn) [Example 4-pyridone, 40-epi-N-[4′-pyridone]-rapamycin]

Compound: CO[C@H]1C[C@@H]2CC[C@@H](C)[C@@](O)(O2)C(=O)C(=O)N2CCCC[C@H]2C(=O)O[C@H]([C@H](C)C[C@@H]2CC[C@@H](O)[C@H](OC)C2)CC(=O)[C@H](C)/C=C(\C)[C@@H](O)[C@@H](OC)C(=O)[C@H](C)C[C@H](C)/C=C/C=C/C=C/1C [Rapamycin]
- MCP-1 production by human monocytes in vitro [2]: dose-dependently inhibit MCP-1 production
- production of TNFα and IL-6 by human monocytes [2]: not demonstrated
- Maximal Inhibitory Activity, IL-6 [2]: − (− indicates maximal inhibitory activity less than 50% of control)
- Maximal Inhibitory Activity, MCP-1 [2]: +++ (+++ indicates maximal inhibitory activity of 75-100% of control)
- Maximal Inhibitory Activity, TNF [2]: − (− indicates maximal inhibitory activity less than 50% of control)
- Maximal Inhibitory Activity, IL-6 [3]: − (− indicates maximal inhibitory activity less than 50% of control)
- Maximal Inhibitory Activity, Il-8 [3]: − (− indicates maximal inhibitory activity less than 50% of control)
- Maximal Inhibitory Activity, MCP-1 [3]: − (− indicates maximal inhibitory activity less than 50% of control)
- Maximal Inhibitory Activity, IL-6 [4]: − (− indicates maximal inhibitory activity less than 50% of control)
- Maximal Inhibitory Activity, Il-8 [4]: − (− indicates maximal inhibitory activity less than 50% of control)
- Maximal Inhibitory Activity, MCP-1 [4]: − (− indicates maximal inhibitory activity less than 50% of control)

Compound: C=CC[C@@H]1/C=C(\C)C[C@H](C)C[C@H](OC)[C@H]2O[C@@](O)(C(=O)C(=O)N3CCCC[C@H]3C(=O)O[C@H](/C(C)=C/[C@@H]3CC[C@@H](O)[C@H](OC)C3)[C@H](C)[C@@H](O)CC1=O)[C@H](C)C[C@@H]2OC [tacrolimus]
- effect on the antiproliferative activity of zotarolimus in hCaSMC ([5]; tacrolimus 100 nM): increased the IC50 of zotarolimus
- effect on the antiproliferative activity of zotarolimus in hCaSMC ([5]; tacrolimus 250 nM or greater, zotarolimus 4 nM): completely blocked the activity of zotarolimus
